Test results taken from article PMC3968014, “Design and Synthesis of a Library of Lead-Like 2,4-Bisheterocyclic Substituted Thiophenes as Selective Dyrk/Clk Inhibitors” (PLoS ONE, 2014).
Read-outs that look alike come from different tables or passages of the source.

Experiments:
[1] = molecular target: T1, MLK1 (Homo sapiens, UniProt P80192); experiment: Selectivity panel MLK1; format: biochemical; settings: 5 µM inhibitor
T1 construct: purchased Life Technologies (Invitrogen SelectScreen); Dyrk1A, Dyrk2 and CK2α in-house or gifts
T1 sequence (P80192 whole entry): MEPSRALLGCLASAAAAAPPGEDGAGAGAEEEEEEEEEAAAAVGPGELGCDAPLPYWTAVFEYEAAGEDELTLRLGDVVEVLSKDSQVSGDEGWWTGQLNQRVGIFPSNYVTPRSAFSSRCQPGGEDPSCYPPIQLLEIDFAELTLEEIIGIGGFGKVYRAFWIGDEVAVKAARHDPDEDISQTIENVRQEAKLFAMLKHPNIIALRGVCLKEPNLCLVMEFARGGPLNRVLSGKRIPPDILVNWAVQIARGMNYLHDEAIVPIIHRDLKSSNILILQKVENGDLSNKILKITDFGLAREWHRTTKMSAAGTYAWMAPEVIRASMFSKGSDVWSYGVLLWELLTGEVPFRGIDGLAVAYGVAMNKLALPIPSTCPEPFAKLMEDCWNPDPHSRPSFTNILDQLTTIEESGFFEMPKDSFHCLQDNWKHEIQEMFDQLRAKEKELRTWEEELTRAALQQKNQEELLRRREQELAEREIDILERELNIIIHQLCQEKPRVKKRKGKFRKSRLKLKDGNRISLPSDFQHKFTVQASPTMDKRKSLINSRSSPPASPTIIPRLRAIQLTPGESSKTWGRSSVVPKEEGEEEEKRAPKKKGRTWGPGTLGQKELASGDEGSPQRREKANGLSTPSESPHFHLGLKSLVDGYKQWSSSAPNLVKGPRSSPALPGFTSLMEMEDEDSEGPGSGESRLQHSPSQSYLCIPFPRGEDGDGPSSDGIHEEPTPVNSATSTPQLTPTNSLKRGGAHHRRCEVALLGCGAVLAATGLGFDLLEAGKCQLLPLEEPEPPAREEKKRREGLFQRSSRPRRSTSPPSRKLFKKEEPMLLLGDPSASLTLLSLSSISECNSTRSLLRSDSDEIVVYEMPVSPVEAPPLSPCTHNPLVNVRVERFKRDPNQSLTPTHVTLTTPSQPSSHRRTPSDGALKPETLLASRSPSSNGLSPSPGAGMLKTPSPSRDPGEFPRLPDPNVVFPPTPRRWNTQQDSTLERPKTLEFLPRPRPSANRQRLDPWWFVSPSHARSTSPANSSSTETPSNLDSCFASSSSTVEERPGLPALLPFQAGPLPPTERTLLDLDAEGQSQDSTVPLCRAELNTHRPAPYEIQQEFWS

[2] = molecular target: T2, Clk3 (Homo sapiens, UniProt P49761); experiment: Selectivity panel Clk3; format: biochemical; settings: 5 µM inhibitor
T2 construct: purchased Life Technologies (Invitrogen SelectScreen); Dyrk1A, Dyrk2 and CK2α in-house or gifts
T2 sequence (P49761 whole entry): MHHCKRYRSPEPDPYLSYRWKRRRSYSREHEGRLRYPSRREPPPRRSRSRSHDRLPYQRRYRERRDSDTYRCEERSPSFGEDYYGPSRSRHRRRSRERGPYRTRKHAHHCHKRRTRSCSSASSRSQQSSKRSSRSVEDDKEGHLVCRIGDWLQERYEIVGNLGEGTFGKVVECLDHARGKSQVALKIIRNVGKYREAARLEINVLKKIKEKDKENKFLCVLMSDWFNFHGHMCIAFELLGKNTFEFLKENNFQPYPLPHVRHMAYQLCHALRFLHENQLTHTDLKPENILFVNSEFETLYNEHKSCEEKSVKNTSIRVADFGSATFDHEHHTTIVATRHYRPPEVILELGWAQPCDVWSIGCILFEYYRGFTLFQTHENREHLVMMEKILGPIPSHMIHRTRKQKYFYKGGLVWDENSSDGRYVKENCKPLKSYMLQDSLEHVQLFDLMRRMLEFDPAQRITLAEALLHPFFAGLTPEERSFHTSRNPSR

[3] = molecular target: T3, CDK5 (Homo sapiens, UniProt Q00535); experiment: Selectivity panel CDK5; format: biochemical; settings: 5 µM inhibitor
T3 construct: purchased Life Technologies (Invitrogen SelectScreen); Dyrk1A, Dyrk2 and CK2α in-house or gifts
T3 sequence (Q00535 whole entry): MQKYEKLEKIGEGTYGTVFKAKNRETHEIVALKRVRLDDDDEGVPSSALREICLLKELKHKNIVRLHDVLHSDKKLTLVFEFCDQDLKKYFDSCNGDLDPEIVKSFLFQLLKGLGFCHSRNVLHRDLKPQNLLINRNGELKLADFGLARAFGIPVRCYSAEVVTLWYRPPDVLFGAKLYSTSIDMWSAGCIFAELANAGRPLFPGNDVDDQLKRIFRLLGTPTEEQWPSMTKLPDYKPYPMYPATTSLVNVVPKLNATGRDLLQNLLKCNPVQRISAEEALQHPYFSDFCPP
T3 sequence (Q15078 whole entry partner): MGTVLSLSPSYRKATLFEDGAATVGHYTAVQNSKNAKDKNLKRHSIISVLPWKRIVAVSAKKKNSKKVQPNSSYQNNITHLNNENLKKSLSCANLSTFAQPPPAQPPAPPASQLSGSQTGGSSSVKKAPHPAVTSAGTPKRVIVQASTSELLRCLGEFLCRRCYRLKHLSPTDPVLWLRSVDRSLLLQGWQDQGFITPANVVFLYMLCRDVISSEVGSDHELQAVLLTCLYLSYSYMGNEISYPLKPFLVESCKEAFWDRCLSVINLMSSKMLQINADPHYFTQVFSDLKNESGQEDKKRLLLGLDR

[4] = molecular target: T4, CaMK1 (Homo sapiens, UniProt Q14012); experiment: Selectivity panel CaMK1; format: biochemical; settings: 5 µM inhibitor
T4 construct: purchased Life Technologies (Invitrogen SelectScreen); Dyrk1A, Dyrk2 and CK2α in-house or gifts
T4 sequence (Q14012 whole entry): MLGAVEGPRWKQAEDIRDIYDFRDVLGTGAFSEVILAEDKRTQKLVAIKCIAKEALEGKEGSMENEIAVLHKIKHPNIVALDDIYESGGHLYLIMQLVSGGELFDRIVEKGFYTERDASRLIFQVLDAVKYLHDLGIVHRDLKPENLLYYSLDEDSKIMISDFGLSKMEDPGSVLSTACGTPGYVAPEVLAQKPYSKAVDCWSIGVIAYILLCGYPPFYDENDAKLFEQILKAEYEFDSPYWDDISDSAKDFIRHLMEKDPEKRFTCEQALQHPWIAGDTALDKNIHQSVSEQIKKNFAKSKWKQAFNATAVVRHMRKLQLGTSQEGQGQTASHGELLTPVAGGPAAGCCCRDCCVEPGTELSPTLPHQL

[5] = molecular target: PIM1 (Homo sapiens, UniProt P11309); experiment: Selectivity panel PIM1; format: biochemical; settings: for inhibition at 5 µM: 5 µM inhibitor
Chain of PIM1 (P11309 whole entry): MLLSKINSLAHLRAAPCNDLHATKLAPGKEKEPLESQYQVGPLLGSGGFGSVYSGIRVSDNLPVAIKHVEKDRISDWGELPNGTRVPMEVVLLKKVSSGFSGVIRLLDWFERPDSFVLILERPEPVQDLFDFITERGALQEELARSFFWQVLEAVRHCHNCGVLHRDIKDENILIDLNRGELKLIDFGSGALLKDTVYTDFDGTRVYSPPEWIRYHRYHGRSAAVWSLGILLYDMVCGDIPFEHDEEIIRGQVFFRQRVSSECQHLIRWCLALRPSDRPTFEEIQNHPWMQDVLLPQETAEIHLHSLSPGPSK

[6] = molecular target: Clk1 (Homo sapiens, UniProt P49759); experiment: Clk1 kinase assay (RS repeat peptide); format: biochemical; settings: for IC50: 100 µM ATP; for inhibition at 5 µM: read-out: % inhibition Clk1
Chain of Clk1 (P49759 whole entry): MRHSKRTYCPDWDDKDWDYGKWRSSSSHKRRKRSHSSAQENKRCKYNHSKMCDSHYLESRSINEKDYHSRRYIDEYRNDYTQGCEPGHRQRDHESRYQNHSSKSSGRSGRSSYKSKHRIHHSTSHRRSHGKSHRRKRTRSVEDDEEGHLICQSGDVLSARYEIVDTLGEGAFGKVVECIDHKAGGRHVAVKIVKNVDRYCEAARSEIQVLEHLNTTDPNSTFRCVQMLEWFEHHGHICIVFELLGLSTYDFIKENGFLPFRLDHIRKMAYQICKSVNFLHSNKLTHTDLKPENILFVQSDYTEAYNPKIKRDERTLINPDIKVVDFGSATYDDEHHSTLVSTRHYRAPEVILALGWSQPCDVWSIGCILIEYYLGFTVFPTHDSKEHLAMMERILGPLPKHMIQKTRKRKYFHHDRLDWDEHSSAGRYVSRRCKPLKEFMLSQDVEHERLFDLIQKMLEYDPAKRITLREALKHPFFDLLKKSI

[7] = molecular target: T5, PKCβ (Homo sapiens, UniProt P05771); experiment: Selectivity panel PKCβ; format: biochemical; settings: 5 µM inhibitor
T5 construct: purchased Life Technologies (Invitrogen SelectScreen); Dyrk1A, Dyrk2 and CK2α in-house or gifts
T5 sequence (P05771 whole entry): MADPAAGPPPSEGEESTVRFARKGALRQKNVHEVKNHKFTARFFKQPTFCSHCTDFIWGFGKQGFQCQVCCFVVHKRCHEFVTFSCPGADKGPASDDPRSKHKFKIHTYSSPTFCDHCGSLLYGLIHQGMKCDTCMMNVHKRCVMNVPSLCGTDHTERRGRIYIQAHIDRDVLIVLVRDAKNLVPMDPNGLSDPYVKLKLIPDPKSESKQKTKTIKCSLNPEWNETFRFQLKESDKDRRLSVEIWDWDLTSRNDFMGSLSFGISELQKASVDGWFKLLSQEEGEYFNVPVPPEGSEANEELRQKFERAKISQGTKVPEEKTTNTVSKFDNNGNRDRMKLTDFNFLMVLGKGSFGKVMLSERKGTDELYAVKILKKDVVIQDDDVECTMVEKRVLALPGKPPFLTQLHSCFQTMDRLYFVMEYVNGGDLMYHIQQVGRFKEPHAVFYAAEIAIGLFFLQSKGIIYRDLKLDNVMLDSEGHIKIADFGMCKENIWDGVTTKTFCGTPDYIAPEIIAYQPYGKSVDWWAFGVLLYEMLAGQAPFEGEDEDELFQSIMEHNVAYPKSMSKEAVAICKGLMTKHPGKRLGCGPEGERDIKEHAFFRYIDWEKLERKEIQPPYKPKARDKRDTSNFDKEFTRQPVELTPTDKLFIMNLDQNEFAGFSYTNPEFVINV

[8] = molecular target: T6, MST1 (STK4) (Homo sapiens, UniProt Q13043); experiment: Selectivity panel MST1; format: biochemical; settings: 5 µM inhibitor
T6 construct: purchased Life Technologies (Invitrogen SelectScreen); Dyrk1A, Dyrk2 and CK2α in-house or gifts
T6 sequence (Q13043 1-487): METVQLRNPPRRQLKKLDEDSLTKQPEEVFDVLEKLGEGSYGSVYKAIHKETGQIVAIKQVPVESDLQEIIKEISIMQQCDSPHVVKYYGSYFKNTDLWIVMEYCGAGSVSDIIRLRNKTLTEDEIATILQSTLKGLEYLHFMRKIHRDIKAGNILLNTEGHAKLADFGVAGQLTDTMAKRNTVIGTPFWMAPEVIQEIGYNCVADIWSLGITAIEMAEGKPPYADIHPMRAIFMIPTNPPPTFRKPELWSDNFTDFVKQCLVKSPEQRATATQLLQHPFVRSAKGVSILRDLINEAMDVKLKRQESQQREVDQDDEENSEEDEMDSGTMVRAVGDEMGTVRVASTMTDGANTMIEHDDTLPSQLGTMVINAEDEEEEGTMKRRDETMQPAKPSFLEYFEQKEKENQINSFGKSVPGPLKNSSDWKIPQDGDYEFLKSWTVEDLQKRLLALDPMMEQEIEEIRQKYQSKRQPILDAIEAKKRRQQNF

[9] = molecular target: T7, NEK1 (Homo sapiens, UniProt Q96PY6); experiment: Selectivity panel NEK1; format: biochemical; settings: 5 µM inhibitor
T7 construct: purchased Life Technologies (Invitrogen SelectScreen); Dyrk1A, Dyrk2 and CK2α in-house or gifts

[10] = molecular target: T8, SRPK1 (Homo sapiens, UniProt Q96SB4); experiment: Selectivity panel SRPK1; format: biochemical; settings: 5 µM inhibitor
T8 construct: purchased Life Technologies (Invitrogen SelectScreen); Dyrk1A, Dyrk2 and CK2α in-house or gifts

[11] = molecular target: T9, HIPK4 (Homo sapiens, UniProt Q8NE63); experiment: Selectivity panel HIPK4; format: biochemical; settings: 5 µM inhibitor
T9 construct: purchased Life Technologies (Invitrogen SelectScreen); Dyrk1A, Dyrk2 and CK2α in-house or gifts

[12] = molecular target: T10, PRKD1 (PKC mu, PKD1) (Homo sapiens, UniProt Q15139); experiment: Selectivity panel PRKD1; format: biochemical; settings: 5 µM inhibitor
T10 construct: purchased Life Technologies (Invitrogen SelectScreen); Dyrk1A, Dyrk2 and CK2α in-house or gifts

[13] = molecular target: T11, BTK (Homo sapiens, UniProt Q06187); experiment: Selectivity panel BTK; format: biochemical; settings: 5 µM inhibitor
T11 construct: purchased Life Technologies (Invitrogen SelectScreen); Dyrk1A, Dyrk2 and CK2α in-house or gifts

[14] = molecular target: T12, CDK1/cyclin B (Homo sapiens, UniProt P06493); experiment: Selectivity panel CDK1/cyclin B; format: biochemical; settings: 5 µM inhibitor
T12 construct: purchased Life Technologies (Invitrogen SelectScreen); Dyrk1A, Dyrk2 and CK2α in-house or gifts
T12 sequence (P06493 whole entry): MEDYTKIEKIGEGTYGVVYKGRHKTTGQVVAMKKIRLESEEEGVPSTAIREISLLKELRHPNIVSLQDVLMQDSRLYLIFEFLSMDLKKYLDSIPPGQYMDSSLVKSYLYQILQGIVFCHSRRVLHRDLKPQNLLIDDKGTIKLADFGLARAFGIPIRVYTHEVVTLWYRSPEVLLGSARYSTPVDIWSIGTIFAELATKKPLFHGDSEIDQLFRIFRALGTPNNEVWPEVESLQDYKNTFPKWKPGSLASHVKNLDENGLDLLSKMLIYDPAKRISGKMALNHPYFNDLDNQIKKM
T12 sequence (P14635 whole entry partner): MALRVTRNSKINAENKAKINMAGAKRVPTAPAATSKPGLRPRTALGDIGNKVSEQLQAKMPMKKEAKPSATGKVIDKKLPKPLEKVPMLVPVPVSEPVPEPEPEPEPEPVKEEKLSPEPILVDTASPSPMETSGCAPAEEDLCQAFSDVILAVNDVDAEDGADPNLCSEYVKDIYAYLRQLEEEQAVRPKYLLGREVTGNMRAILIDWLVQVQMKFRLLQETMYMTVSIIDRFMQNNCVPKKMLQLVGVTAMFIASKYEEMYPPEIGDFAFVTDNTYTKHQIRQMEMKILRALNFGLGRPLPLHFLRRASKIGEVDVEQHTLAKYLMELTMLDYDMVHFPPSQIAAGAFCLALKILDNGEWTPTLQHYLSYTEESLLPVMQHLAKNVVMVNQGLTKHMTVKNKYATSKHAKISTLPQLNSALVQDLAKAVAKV

[15] = molecular target: T13, MAPK10 (JNK3) (Homo sapiens, UniProt P53779); experiment: Selectivity panel MAPK10; format: biochemical; settings: 5 µM inhibitor
T13 construct: purchased Life Technologies (Invitrogen SelectScreen); Dyrk1A, Dyrk2 and CK2α in-house or gifts

[16] = molecular target: T14, CLK4 (Homo sapiens, UniProt Q9HAZ1); experiment: Selectivity panel CLK4; format: biochemical; settings: 5 µM inhibitor
T14 construct: purchased Life Technologies (Invitrogen SelectScreen); Dyrk1A, Dyrk2 and CK2α in-house or gifts

[17] = molecular target: T15, (Homo sapiens, UniProt Q9UEW8); experiment: Selectivity panel PASK (STLK3); format: biochemical; settings: 5 µM inhibitor; listed under STE
T15 construct: purchased Life Technologies (Invitrogen SelectScreen); Dyrk1A, Dyrk2 and CK2α in-house or gifts

[18] = molecular target: T16, FGFR3 (Homo sapiens, UniProt P22607); experiment: Selectivity panel FGFR3; format: biochemical; settings: 5 µM inhibitor
T16 construct: purchased Life Technologies (Invitrogen SelectScreen); Dyrk1A, Dyrk2 and CK2α in-house or gifts

[19] = molecular target: T17, MAP3K5 (ASK1) (Homo sapiens, UniProt Q99683); experiment: Selectivity panel MAP3K5; format: biochemical; settings: 5 µM inhibitor
T17 construct: purchased Life Technologies (Invitrogen SelectScreen); Dyrk1A, Dyrk2 and CK2α in-house or gifts

[20] = molecular target: T18, MARK1 (MARK) (Homo sapiens, UniProt Q9P0L2); experiment: Selectivity panel MARK1; format: biochemical; settings: 5 µM inhibitor
T18 construct: purchased Life Technologies (Invitrogen SelectScreen); Dyrk1A, Dyrk2 and CK2α in-house or gifts

[21] = tested on: V79 hamster lung fibroblast cells; experiment: ViaLight Toxicity Assay; format: cell-based; settings: V79 cells, 5 µM, 48 hours
Method: V79 hamster lung fibroblast cells were plated at a density of 45,000 cells per well in a white 96 well plate and allowed to adhere and grow for 24 hours. The compounds were then applied as dilutions in cell culture medium (DMEM with 10% FCS and penicillin/streptomycin mix) at a final concentration of 5, 10, and 20 µM, respectively. The plate was further incubated for 48 hours at 37°C in a humidified atmosphere containing 5% CO2. The ATP level was detected with a LONZA ViaLight™ Plus Kit according to protocol 1 of the vendor's instructions. Luminescence was measured in a POLARstar plate reader (BMG Labtech, Offenburg, Germany). The background luminescence was obtained from equally treated, cell-free wells containing serum, and subtracted from all values. Inhibition values obtained for different compound concentrations were compared using the two-sided Student's t-test; levels of significance thus obtained are indicated by asterisks.

[22] = molecular target: T19, WEE1 (Homo sapiens, UniProt P30291); experiment: Selectivity panel WEE1; format: biochemical; settings: 5 µM inhibitor
T19 construct: purchased Life Technologies (Invitrogen SelectScreen); Dyrk1A, Dyrk2 and CK2α in-house or gifts

[23] = molecular target: T20, IKBKB (IKK beta) (Homo sapiens, UniProt O14920); experiment: Selectivity panel IKBKB; format: biochemical; settings: 5 µM inhibitor
T20 construct: purchased Life Technologies (Invitrogen SelectScreen); Dyrk1A, Dyrk2 and CK2α in-house or gifts

[24] = molecular target: T21, MAP3K14 (NIK) (Homo sapiens, UniProt Q99558); experiment: Selectivity panel MAP3K14; format: biochemical; settings: 5 µM inhibitor
T21 construct: purchased Life Technologies (Invitrogen SelectScreen); Dyrk1A, Dyrk2 and CK2α in-house or gifts

[25] = molecular target: T22, CHEK2 (CHK2) (Homo sapiens, UniProt O96017); experiment: Selectivity panel CHEK2; format: biochemical; settings: 5 µM inhibitor
T22 construct: purchased Life Technologies (Invitrogen SelectScreen); Dyrk1A, Dyrk2 and CK2α in-house or gifts

[26] = molecular target: T23, ZAP70 (Homo sapiens, UniProt P43403); experiment: Selectivity panel ZAP70; format: biochemical; settings: 5 µM inhibitor
T23 construct: purchased Life Technologies (Invitrogen SelectScreen); Dyrk1A, Dyrk2 and CK2α in-house or gifts

[27] = molecular target: T24, LYN A (Homo sapiens, UniProt P07948); experiment: Selectivity panel LYN A; format: biochemical; settings: 5 µM inhibitor
T24 construct: purchased Life Technologies (Invitrogen SelectScreen); Dyrk1A, Dyrk2 and CK2α in-house or gifts

[28] = molecular target: T25, ROCK2 (Homo sapiens, UniProt O75116); experiment: Selectivity panel ROCK2; format: biochemical; settings: 5 µM inhibitor
T25 construct: purchased Life Technologies (Invitrogen SelectScreen); Dyrk1A, Dyrk2 and CK2α in-house or gifts

[29] = molecular target: T26, TNK2 (ACK) (Homo sapiens, UniProt Q07912); experiment: Selectivity panel TNK2; format: biochemical; settings: 5 µM inhibitor
T26 construct: purchased Life Technologies (Invitrogen SelectScreen); Dyrk1A, Dyrk2 and CK2α in-house or gifts

[30] = molecular target: T27, PRKCZ (PKC zeta) (Homo sapiens, UniProt Q05513); experiment: Selectivity panel PRKCZ; format: biochemical; settings: 5 µM inhibitor
T27 construct: purchased Life Technologies (Invitrogen SelectScreen); Dyrk1A, Dyrk2 and CK2α in-house or gifts

[31] = molecular target: T28, PASK (Homo sapiens, UniProt Q96RG2); experiment: Selectivity panel PASK (CAMK); format: biochemical; settings: 5 µM inhibitor; listed under CAMK
T28 construct: purchased Life Technologies (Invitrogen SelectScreen); Dyrk1A, Dyrk2 and CK2α in-house or gifts

| Structure (SMILES) | inhibition at 5 µM [1] [%] | inhibition at 5 µM [2] [%] | inhibition at 5 µM [3] [%] | inhibition at 5 µM [4] [%] | IC50 [5] [nM] | inhibition at 5 µM [5] [%] | IC50 [6] [nM] | inhibition at 5 µM ([6]; at 5 µM) [%] | inhibition at 5 µM [7] [%] | inhibition at 5 µM [8] [%] | inhibition at 5 µM [9] [%] | inhibition at 5 µM [10] [%] | inhibition at 5 µM [11] [%] | inhibition at 5 µM [12] [%] | inhibition at 5 µM [13] [%] | inhibition at 5 µM [14] [%] | inhibition at 5 µM [15] [%] | inhibition at 5 µM [16] [%] | inhibition at 5 µM [17] [%] | inhibition at 5 µM [18] [%] | also measured |
| --- | --- | --- | --- | --- | --- | --- | --- | --- | --- | --- | --- | --- | --- | --- | --- | --- | --- | --- | --- | --- | --- |
| c1cncc(-c2csc(-c3cnco3)c2)c1 [Compound 33, 3-[5-(1,3-oxazol-5-yl)thiophen-3-yl]pyridine] | 0 | 5 | 23 | 12 | ~5000 | 51 | 420 | 88 | -18 | 0 | – | – | – | – | – | – | – | – | – | – | – |
| c1cncc(-c2cc(-c3cncs3)cs2)c1 [Compound 29, 3-[4-(1,3-thiazol-5-yl)thiophen-2-yl]pyridine] | 15 | 12 | 39 | 8 | – | 22 | – | – | -7 | 0 | 3 | 3 | 7 | -1 | 17 | 29 | 4 | 105 | 23 | -2 | inhibition at 5 µM [19]: 4%; inhibition at 5 µM [20]: 0%; influence on cell viability (cellular ATP levels) [21]: no influence on cell viability; inhibition at 5 µM [22]: 17%; inhibition at 5 µM [23]: 8%; inhibition at 5 µM [24]: 2%; inhibition at 5 µM [25]: 1%; inhibition at 5 µM [6]: 96%; inhibition at 5 µM [26]: 4%; inhibition at 5 µM [27]: 16%; inhibition at 5 µM [28]: 6%; inhibition at 5 µM [29]: 8%; inhibition at 5 µM [30]: -23%; inhibition at 5 µM [31]: 23% |
| Cn1cc(-c2csc(-c3cccnc3)c2)cn1 [Compound 30, 3-[4-(1-methyl-1H-pyrazol-4-yl)thiophen-2-yl]pyridine] | 16 | 17 | 33 | 17 | ~5000 | 52 | 160 | 92 | -8 | -10 | – | – | – | – | – | – | – | – | – | – | – |
| c1cncc(-c2csc(-c3cncnc3)c2)c1 [Compound 41, 5-[4-(pyridin-3-yl)thiophen-2-yl]pyrimidine] | 3 | 5 | 14 | 0 | – | 14 | 610 | 86 | -7 | 2 | – | – | – | – | – | – | – | – | – | – | – |
| c1cncc(-c2csc(-c3cncs3)c2)c1 [Compound 48, 3-[5-(1,3-thiazol-5-yl)thiophen-3-yl]pyridine] | 17 | 31 | 44 | 5 | ~5000 | 51 | 110 | 94 | 1 | 9 | -5 | 1 | 7 | -5 | 15 | 42 | 2 | 99 | 27 | -1 | inhibition at 5 µM [19]: 6%; inhibition at 5 µM [20]: 1%; influence on cell viability (cellular ATP levels) [21]: no influence on cell viability; inhibition at 5 µM [22]: 10%; inhibition at 5 µM [23]: 12%; inhibition at 5 µM [24]: 5%; inhibition at 5 µM [25]: -2%; inhibition at 5 µM [26]: -1%; inhibition at 5 µM [27]: 13%; inhibition at 5 µM [28]: 9%; inhibition at 5 µM [29]: 8%; inhibition at 5 µM [30]: -25%; inhibition at 5 µM [31]: 27% |
